Legend:
[1] = system: p53, Mdm2, p21, PCNA, Bax and Bcl-2; assay: Gene expression assay (semi-quantitative PCR, Western blot) in rat liver, progression stage; assay type: in vivo
Experimental: RNA was extracted from 300 μg of rat liver and was measured as described in foregoing examples Three micrograms of total RNA, 1 μl of an oligo dT primer and certain volume of RNase-Free H2O were mixed into a total volume of 12 μl. The mixture was incubated at 70° C. for 10 minutes and immediately chilled on ice. Four microliters of 5× First Stand Buffer, 2 μl of 0.1M DTT, 1 μl of 10 mM dNTP mix, and 1 μl of SuperScript II were added to each tube and mixed. The tubes were incubated at 42° C. for 50 minutes followed by 70° C. for 15 minutes before chilling on ice. The cDNA was then ready for PCR amplification.
The PCR reactions were performed in a final volume of 20 μl in a Gene Amp® PCR system. The PCR reaction mix contained 1 μl of cDNA synthesized previously, 2 μl 10×PCR Buffer, 0.4 μl 10 mM dNTP mix, 1.2 μl 25 mM MgCl2, 1 μl 10 mM primer mix, 0.2 μl recombinant Taq polymerase, and 14.2 μl autoclaved ddH2O.
The intensity of the PCR products was analyzed by the software Image J. The band intensity of the β-actin gene was measured as an internal control. The ratio of the band intensities of the target gene to the β-actin gene was used to compare the mRNA level of each gene between different treatment groups.
Three hundred micrograms of each liver sample were homogenized in the Solution C at 1 g/ml using a glass homogenizer on ice. The homogenate was transferred to a microcentrifuge tube and centrifuged at 13,000 rpm for 20 minutes. The supernatant was collected and equal volume of 2× sample loading dye was added to each sample. The samples were stored at −20° C. The protein was used for immunodetection of the expression level of Bax, Bcl-2, PCNA and p21.
Three hundreds micrograms of each liver sample were homogenized in Solution A at 1 g/ml using the glass homogenizer on ice. The homogenate was transferred into a microcentrifuge tube and centrifuged at 3,000 rpm for 5 minutes to spin down the unbroken tissue. The supernatant was collected and incubated on ice for 5 minutes and then centrifuged at 5,000 rpm for 5 minutes. The supernatant was discarded and the pellet was lysed by 100 μl Solution B. The lysing process lasted for 20 minutes on ice. After incubation, the solution was centrifuged at 12,000 rpm for 15 seconds to spin down the cell debris. The supernatant was collected and equal volume of 2× sample loading dye was added to each sample. The samples were ready for immunodetection of the expression level of p53 and mdm2.
Each of the transferred membrane blots was incubated in 4 ml TBST with 5% non-fat milk powder and primary antibody overnight at 4° C. After incubation, the membrane was washed in TBST buffer for 10 minutes for 3 times. Each transferred membrane blot was then incubated in 4 ml TBST and 5% non-fat milk powder with secondary antibody for 1 hour at room temperature. After incubation, the membrane was washed in TBST buffer for 10 minutes for 3 times. The membrane was ready for ECL reaction.
The films that captured the signal from the ECL reaction were scanned into the computer and analyzed by the software Image J to read the density of darkness.
Rats in the negative control group received weekly intraperitoneal (i.p.) injection of DMSO for the first 2 weeks and then Corn Oil for 28 weeks. Rats in the positive control and SIN-treatment groups both received weekly intraperitoneal (i.p.) injection of DEN for the first 2 weeks and then CCl4 for 28 weeks. Two weeks of fasting were inserted between DEN treatment and CCl4 treatment. Starting from 33rd week, negative and positive control groups received oral administration of water once a day. Sinigrin with dosage 15 mg/kg was administered orally to the SIN-treatment group daily for 24 weeks. After treatment, the rats were killed. Blood and liver were collected and processed as described in the foregoing examples.
The gene expression assays were performed as described in the foregoing examples. […]

[2] = system: HepG2 cells; assay: Apoptosis determination by DNA fragmentation assay; assay type: cell-based, human
Source text: DNA fragmentation or DNA laddering is an indication of apoptosis. During the apoptosis process, the enzymes involved in DNA repair and cell replication are inactivated and nuclear proteins are degraded. After the nuclear structure is fragmented, DNA inside the nucleus is fragmented by the enzyme Caspase Activated DNase. This enzyme is only activated during apoptosis and causes the fragmentation of DNA into nucleosomal units (Hugh J M Brady, 2004). DNA fragmentation is used to identify the apoptosis event.
HepG2 cells were treated and harvested as described in the foregoing examples. The cell pellet was re-suspended in 400 μl of the lysis buffer by vortexing. Twenty microliters of 10 mg/ml protease K were added into the solution after a complete dissolution. The solution was incubated at 37° C. for 3 hours to completely lyse the cells. After incubation, the solution was allowed to cool to room temperature. One hundred and fifty microliters of a saturated NaCl solution were added into the cell lysate and vortexed. The lysate was centrifuged at 7,000 rpm for 15 minutes. The supernatant was collected in a new microcentrifuge tube. One milliliter of ice cold absolute ethanol was added to the solution to precipitate DNA. After precipitation, the microcentrifuge tube was centrifuged at 14,000 rpm for 20 minutes at 4° C. […]

In the case of C=CC/C(=N/OS(=O)(=O)[O-])S[C@@H]1OC(CO)[C@@H](O)C(O)C1O.[K+] (some centres unmarked) [SIN, sinigrin], the “Mdm2 mRNA expression” value ([1]; RT-PCR) is reported as “reduced back to levels near or even lower than the negative control”, the “p53 mRNA expression” value ([1]; RT-PCR) is reported as “reduced back to levels near or even lower than the negative control” and the “Bax protein expression (decreased in positive group)” value ([1]; Western blot) is reported as “reversed”. For the same compound, the “Bcl-2 protein expression (increased in positive group)” value ([1]; Western blot) was “reversed”, the “Mdm2 protein expression (increase in positive control)” value ([1]; Western blot) was “partially reversed” and the “PCNA protein expression (increased in positive group)” value ([1]; Western blot) was “reversed”. The p21 protein expression ([1]; Western blot) was “restored its expression to a level substantially higher than the negative control”, the “total p53 protein level” value ([1]; Western blot) was “significantly increased” and the “wild type p53 protein level” value ([1]; Western blot) was “restored its expression to a level even higher than that of the negative control”. For the same compound, the “DNA ladder on agarose gel” value ([2]; 0.25 mM SIN) was “A DNA ladder started to appear” and the “DNA ladder on agarose gel” value ([2]; 0.5 mM SIN, 96 hours) was “a DNA ladder was clearly visible”.

From US20100120703A1, “COMPOSITIONS AND METHODS FOR TREATING CANCER” (priority 2007, published 2010)
